This note sets out measurements from ChEMBL document CHEMBL1144965, “A series of 2(Z)-2-benzylidene-6,7-dihydroxybenzofuran-3[2H]-ones as inhibitors of chorismate synthase” (Bioorg Med Chem Lett, 2003).

Broadly, the Ki is a dissociation constant, usually derived from enzyme kinetics or from competition with a known ligand. A high value points to lower affinity. Usually IC50 stands for the concentration that gives 50% inhibition. By Km is commonly meant the concentration of substrate that gives half-maximal velocity.

The labels stand for the following.
B1: 3-phosphoshikimate 1-carboxyvinyltransferase (Escherichia coli K-12), P0A6D3 (protein)
chain: MESLTLQPIARVDGTINLPGSKSVSNRALLLAALAHGKTVLTNLLDSDDVRHMLNALTALGVSYTLSADRTRCEIIGNGGPLHAEGALELFLGNAGTAMRPLAAALCLGSNDIVLTGEPRMKERPIGHLVDALRLGGAKITYLEQENYPPLRLQGGFTGGNVDVDGSVSSQFLTALLMTAPLAPEDTVIRIKGDLVSKPYIDITLNLMKTFGVEIENQHYQQFVVKGGQSYQSPGTYLVEGDASSASYFLAAAAIKGGTVKVTGIGRNSMQGDIRFADVLEKMGATICWGDDYISCTRGELNAIDMDMNHIPDAAMTIATAALFAKGTTTLRNIYNWRVKETDRLFAMATELRKVGAEVEEGHDYIRITPPEKLNFAEIATYNDHRMAMCFSLVALSDTPVTILDPKCTAKTFPDYFEQLARISQAA

Molecular target in one data set: not listed separately
Description: (§1) Non-competitive inhibitory activity with respect to cofactor FMN.
Consider `CCN(CC)c1ccc(/C=C2/Oc3c(ccc(O)c3O)C2=O)cc1`, for which the Ki is 1700 nM.

The target in another data set is T1, Chorismate synthase (Streptococcus pneumoniae serotype 4 (strain ATCC BAA-334 / TIGR4), UniProt P0A2Y6).
T1 sequence (P0A2Y6 whole entry): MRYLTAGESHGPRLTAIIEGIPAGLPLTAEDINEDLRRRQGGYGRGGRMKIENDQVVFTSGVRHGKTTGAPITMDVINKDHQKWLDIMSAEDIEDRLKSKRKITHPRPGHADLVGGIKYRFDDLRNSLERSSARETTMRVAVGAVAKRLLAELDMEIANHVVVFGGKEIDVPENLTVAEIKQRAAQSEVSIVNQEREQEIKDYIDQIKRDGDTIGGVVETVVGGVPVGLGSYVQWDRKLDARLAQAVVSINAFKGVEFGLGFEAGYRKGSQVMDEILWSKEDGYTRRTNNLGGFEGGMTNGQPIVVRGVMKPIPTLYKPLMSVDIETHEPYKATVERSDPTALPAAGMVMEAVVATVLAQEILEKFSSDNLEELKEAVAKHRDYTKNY
Description: Inhibitory concentration against Streptococcus pneumoniae chorismate synthase; Not active.
As for `N#Cc1ccc(/C=C2/Oc3c(ccc(O)c3O)C2=O)cc1`, the IC50 result is on record as “Not Active”.
On to `Cc1ccc(/C=C2/Oc3c(ccc(O)c3O)C2=O)cc1`, for which the IC50 entry was “Not Active”.

For a further data set, the target named is Chorismate synthase (Streptococcus pneumoniae). The data set can be described thus: Competitive inhibitory activity with respect to EPSP (5-enolpyruvyl-shikimate- 3-phosphate) at chorismate synthase.
The molecule `COc1ccc(/C=C2/Oc3c(ccc(O)c3O)C2=O)c(O)c1` registered a Ki of 100 nM.

Substrate in another data set: CCN(CC)c1ccc(/C=C2/Oc3c(ccc(O)c3O)C2=O)cc1
Assay: not given; call rule not given here
As to B1, the Michaelis-Menten constant (Km) stood at 30 µM.

Tested on in the next data set: not listed separately
Described as §1.
Consider `COc1ccc(/C=C2/Oc3c(ccc(O)c3O)C2=O)c(O)c1`, for which the affinity, expressed as Ki, was 1400 nM.

A further data set has as its target T1, Chorismate synthase. The data set can be described thus: Inhibitory concentration against Streptococcus pneumoniae chorismate synthase.
Molecule `O=C1/C(=C\c2ccc(-n3ccnc3)cc2)Oc2c1ccc(O)c2O` yielded an IC50 of 5100 nM.
On to `O=C(O)c1ccccc1/C=C1/Oc2c(ccc(O)c2O)C1=O`, for which the IC50 came out at 10700 nM.
`CCCCOc1ccc(/C=C2/Oc3c(ccc(O)c3O)C2=O)cc1` registered a half-maximal inhibitory concentration (IC50) of 1500 nM.
Still for that read-out and setting: the value for `COc1ccc(/C=C2/Oc3c(ccc(O)c3O)C2=O)c(O)c1` was 700 nM.
The molecule `CCCCCCOc1ccc(/C=C2/Oc3c(ccc(O)c3O)C2=O)c(O)c1` yielded an IC50 of 320 nM.
Consider `CC(C)COc1ccc(/C=C2/Oc3c(ccc(O)c3O)C2=O)c(O)c1`, for which the IC50 came to 580 nM.
As for `O=C1/C(=C\c2ccccc2Cl)Oc2c1ccc(O)c2O`, it took 5200 nM to reach half-maximal inhibition (IC50).
`CCCCOc1ccc(/C=C2/Oc3c(ccc(O)c3O)C2=O)c(O)c1` had a 50% inhibitory concentration (IC50) of 450 nM.
For the molecule `CN(C)c1ccc(/C=C2/Oc3c(ccc(O)c3O)C2=O)cc1`, half-maximal inhibition (IC50) required 25900 nM.
On to `O=C(O)COc1ccc(/C=C2/Oc3c(ccc(O)c3O)C2=O)c(O)c1`, for which the IC50 was found to be 2600 nM.
The molecule `O=C1/C(=C\c2ccc(OCCCCCCO)cc2O)Oc2c1ccc(O)c2O` returned a half-inhibitory concentration (IC50) of 1600 nM.
Take `N#CCCCOc1ccc(/C=C2/Oc3c(ccc(O)c3O)C2=O)c(O)c1`: the half-maximal inhibitory concentration (IC50) turned out to be 1100 nM.
Same read-out and setting: the figure for `O=C1/C(=C\c2ccc(OCCCO)cc2O)Oc2c1ccc(O)c2O` is 2500 nM; for `CCCOc1ccc(/C=C2/Oc3c(ccc(O)c3O)C2=O)c(O)c1` it is 510 nM; for `O=C(O)CCCOc1ccc(/C=C2/Oc3c(ccc(O)c3O)C2=O)c(O)c1` it is 1100 nM.
`O=C1/C(=C\c2ccc(N3CCCC3)cc2)Oc2c1ccc(O)c2O` registered a half-inhibitory concentration (IC50) of 5500 nM.
Consider `CCCCCOc1ccc(/C=C2/Oc3c(ccc(O)c3O)C2=O)c(O)c1`, for which the midpoint of inhibition, the IC50, lay at 220 nM.
On the same count and under the same terms, the value for `CCOC(=O)COc1ccc(/C=C2/Oc3c(ccc(O)c3O)C2=O)c(O)c1` was 10300 nM.
For `CCOc1ccc(/C=C2/Oc3c(ccc(O)c3O)C2=O)cc1`, the IC50 worked out at 5800 nM.
On the same count and under the same terms, the figure for `CCOC(=O)CCCOc1ccc(/C=C2/Oc3c(ccc(O)c3O)C2=O)c(O)c1` is 650 nM; for `O=C1/C(=C\c2ccccc2C(F)(F)F)Oc2c1ccc(O)c2O` it is 17300 nM.
On to `CCN(CCO)c1ccc(/C=C2/Oc3c(ccc(O)c3O)C2=O)c(C)c1`, for which it took 3400 nM to reach half-maximal inhibition (IC50).
`COc1ccc(/C=C2/Oc3c(ccc(O)c3O)C2=O)cc1` yielded an IC50 of 14300 nM.
For the molecule `O=C1/C(=C\c2ccc(O)cc2)Oc2c1ccc(O)c2O`, the IC50 was determined as 15000 nM.
With `O=C1/C(=C\c2ccc(OCCCCO)cc2O)Oc2c1ccc(O)c2O`, the IC50 came to 860 nM.
Same read-out and setting: the value for `COc1ccccc1/C=C1/Oc2c(ccc(O)c2O)C1=O` was greater than 60000 nM; that for `O=C1/C(=C\c2ccc(N3CCOCC3)cc2)Oc2c1ccc(O)c2O` was greater than 50000 nM; that for `O=C1/C(=C\c2ccc(F)cc2)Oc2c1ccc(O)c2O` was greater than 60000 nM.
Take `O=C1/C(=C\c2ccccc2[N+](=O)[O-])Oc2c1ccc(O)c2O`: half-maximal inhibition (IC50) required 2000 nM.
`O=C1/C(=C\c2ccc([N+](=O)[O-])cc2)Oc2c1ccc(O)c2O`: the IC50 was 4800 nM.
Molecule `CCN(CC)c1ccc(/C=C2/Oc3c(ccc(O)c3O)C2=O)c(O)c1` showed a concentration for half-maximal inhibition (IC50) of 5000 nM.
Consider `O=C(O)c1ccc(/C=C2/Oc3c(ccc(O)c3O)C2=O)cc1`, for which it took 24000 nM to reach half-maximal inhibition (IC50).
In turn, `O=C1/C(=C\c2ccc(C(F)(F)F)cc2)Oc2c1ccc(O)c2O` displayed an IC50 of 7000 nM.
For the molecule `Cc1ccccc1/C=C1/Oc2c(ccc(O)c2O)C1=O`, the 50% inhibitory concentration (IC50) came to 4000 nM.
`O=C1/C(=C\c2ccc(OCc3ccccc3)cc2O)Oc2c1ccc(O)c2O` displayed an IC50 of 1000 nM.
`COc1cccc(/C=C2/Oc3c(ccc(O)c3O)C2=O)c1O` showed an IC50 of 1700 nM.
Turning to `O=C1/C(=C\c2ccccc2)Oc2c1ccc(O)c2O`, the 50% inhibitory concentration (IC50) was 3500 nM.
On the same count and under the same terms, the figure for `O=C1/C(=C\c2ccccc2O)Oc2c1ccc(O)c2O` is 800 nM; for `CC(C)Oc1ccc(/C=C2/Oc3c(ccc(O)c3O)C2=O)c(O)c1` it is 1000 nM.
The molecule `O=C(O)COc1ccccc1/C=C1/Oc2c(ccc(O)c2O)C1=O` yielded an IC50 of 1800 nM.
